Measured values as given in ChEMBL document CHEMBL5291721, “A preclinical secondary pharmacology resource illuminates target-adverse drug reaction associations of marketed drugs” (Nat Commun, 2023).

Columns and labels:
Androgen receptor = biological target: T1, Androgen receptor (Homo sapiens, UniProt P10275)
T1 sequence (P10275 whole entry): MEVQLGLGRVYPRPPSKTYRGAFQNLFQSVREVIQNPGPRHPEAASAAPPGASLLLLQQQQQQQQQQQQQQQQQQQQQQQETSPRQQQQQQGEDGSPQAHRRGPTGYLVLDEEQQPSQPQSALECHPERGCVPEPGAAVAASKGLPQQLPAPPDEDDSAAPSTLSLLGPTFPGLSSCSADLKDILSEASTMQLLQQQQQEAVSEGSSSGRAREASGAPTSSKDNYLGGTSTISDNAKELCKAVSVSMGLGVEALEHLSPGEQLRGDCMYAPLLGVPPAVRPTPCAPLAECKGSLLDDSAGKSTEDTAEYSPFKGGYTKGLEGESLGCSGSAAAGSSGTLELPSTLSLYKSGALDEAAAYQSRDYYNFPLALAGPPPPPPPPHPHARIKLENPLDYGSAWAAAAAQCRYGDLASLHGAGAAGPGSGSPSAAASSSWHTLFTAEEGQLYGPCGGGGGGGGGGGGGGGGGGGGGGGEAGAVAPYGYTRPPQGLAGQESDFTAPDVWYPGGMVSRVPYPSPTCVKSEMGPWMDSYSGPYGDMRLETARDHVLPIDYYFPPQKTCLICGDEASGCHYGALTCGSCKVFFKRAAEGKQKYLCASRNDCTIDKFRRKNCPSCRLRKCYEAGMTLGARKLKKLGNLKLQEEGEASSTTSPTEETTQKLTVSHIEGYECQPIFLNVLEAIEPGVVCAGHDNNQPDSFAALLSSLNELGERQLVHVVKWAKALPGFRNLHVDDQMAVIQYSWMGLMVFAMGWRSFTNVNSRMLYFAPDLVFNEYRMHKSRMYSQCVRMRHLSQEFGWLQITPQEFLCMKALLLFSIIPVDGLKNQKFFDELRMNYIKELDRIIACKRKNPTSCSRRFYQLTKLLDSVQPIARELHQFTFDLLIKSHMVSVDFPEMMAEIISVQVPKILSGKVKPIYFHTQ

[1] = biological target: T2, Alpha-1A adrenergic receptor (Homo sapiens, UniProt P35348); assay type: functional, cell-based
T2 sequence (P35348 whole entry): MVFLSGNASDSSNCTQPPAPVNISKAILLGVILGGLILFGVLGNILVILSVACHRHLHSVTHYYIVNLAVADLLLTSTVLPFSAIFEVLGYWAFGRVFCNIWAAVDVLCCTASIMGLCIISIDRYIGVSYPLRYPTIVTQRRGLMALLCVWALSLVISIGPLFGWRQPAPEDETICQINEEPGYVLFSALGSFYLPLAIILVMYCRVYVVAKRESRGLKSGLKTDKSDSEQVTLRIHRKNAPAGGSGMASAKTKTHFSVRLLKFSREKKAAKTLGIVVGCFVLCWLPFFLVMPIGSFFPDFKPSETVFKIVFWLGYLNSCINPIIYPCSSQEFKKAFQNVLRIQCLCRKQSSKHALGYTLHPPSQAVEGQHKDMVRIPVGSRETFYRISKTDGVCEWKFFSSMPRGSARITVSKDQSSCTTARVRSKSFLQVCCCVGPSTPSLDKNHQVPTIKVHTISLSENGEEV

Endothelin-1 receptor = biological target: T3, Endothelin-1 receptor (Homo sapiens, UniProt P25101)
T3 sequence (P25101 whole entry): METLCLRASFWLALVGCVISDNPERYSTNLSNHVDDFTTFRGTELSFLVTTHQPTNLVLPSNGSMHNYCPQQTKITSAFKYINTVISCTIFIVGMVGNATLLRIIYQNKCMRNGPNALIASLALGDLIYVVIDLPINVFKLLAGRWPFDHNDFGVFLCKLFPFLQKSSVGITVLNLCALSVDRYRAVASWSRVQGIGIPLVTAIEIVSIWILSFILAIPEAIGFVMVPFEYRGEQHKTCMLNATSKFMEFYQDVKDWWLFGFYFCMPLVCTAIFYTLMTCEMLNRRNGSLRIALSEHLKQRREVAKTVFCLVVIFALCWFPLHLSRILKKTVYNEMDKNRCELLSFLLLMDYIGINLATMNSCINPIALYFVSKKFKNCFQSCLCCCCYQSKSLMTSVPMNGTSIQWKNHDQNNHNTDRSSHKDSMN

[2] = biological target: T2, Alpha-1A adrenergic receptor; assay type: functional, cell-based; remark: listed apart in the source
[3] = biological target: T4, 5-hydroxytryptamine receptor 3A (Homo sapiens, UniProt P46098); assay type: functional
T4 sequence (P46098 whole entry): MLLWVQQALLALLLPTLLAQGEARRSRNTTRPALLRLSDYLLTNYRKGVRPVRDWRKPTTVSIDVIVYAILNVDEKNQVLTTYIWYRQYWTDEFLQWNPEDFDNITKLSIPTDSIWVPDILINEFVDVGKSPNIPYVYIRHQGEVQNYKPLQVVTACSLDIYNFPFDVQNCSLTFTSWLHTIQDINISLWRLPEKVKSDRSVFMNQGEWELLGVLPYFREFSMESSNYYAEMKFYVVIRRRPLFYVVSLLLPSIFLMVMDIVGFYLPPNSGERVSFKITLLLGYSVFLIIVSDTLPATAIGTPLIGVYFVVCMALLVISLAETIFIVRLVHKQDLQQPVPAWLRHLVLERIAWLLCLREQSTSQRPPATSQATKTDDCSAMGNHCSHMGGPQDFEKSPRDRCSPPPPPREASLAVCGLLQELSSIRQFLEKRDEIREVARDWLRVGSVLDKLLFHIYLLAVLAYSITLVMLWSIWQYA

[4] = biological target: 3',5'-cyclic-AMP phosphodiesterase 4D (Homo sapiens, UniProt Q08499); assay type: functional
3',5'-cyclic-AMP phosphodiesterase 4D, sequence (Q08499 whole entry): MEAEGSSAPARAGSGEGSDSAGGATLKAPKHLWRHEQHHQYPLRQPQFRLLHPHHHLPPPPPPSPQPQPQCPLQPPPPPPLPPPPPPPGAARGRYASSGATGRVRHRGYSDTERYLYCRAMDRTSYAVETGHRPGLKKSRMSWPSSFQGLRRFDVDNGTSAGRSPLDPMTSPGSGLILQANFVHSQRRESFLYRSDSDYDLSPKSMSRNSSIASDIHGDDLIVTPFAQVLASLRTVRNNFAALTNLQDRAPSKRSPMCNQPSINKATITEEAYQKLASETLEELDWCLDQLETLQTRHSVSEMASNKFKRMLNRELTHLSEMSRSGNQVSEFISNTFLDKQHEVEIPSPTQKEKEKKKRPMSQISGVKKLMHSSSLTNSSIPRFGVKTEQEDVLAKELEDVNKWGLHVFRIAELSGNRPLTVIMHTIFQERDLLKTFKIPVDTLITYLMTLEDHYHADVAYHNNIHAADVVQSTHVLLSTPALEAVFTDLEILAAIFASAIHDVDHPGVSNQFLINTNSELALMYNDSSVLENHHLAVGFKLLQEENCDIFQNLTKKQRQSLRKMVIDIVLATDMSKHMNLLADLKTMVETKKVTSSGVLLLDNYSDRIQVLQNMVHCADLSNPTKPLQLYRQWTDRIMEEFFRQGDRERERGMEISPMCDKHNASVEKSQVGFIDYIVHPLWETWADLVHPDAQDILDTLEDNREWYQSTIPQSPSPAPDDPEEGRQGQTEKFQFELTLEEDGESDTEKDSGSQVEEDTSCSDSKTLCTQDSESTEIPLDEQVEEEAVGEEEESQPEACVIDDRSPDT

[5] = biological target: T5, Equilibrative nucleoside transporter 1 (Homo sapiens, UniProt Q99808)
T5 sequence (Q99808 whole entry): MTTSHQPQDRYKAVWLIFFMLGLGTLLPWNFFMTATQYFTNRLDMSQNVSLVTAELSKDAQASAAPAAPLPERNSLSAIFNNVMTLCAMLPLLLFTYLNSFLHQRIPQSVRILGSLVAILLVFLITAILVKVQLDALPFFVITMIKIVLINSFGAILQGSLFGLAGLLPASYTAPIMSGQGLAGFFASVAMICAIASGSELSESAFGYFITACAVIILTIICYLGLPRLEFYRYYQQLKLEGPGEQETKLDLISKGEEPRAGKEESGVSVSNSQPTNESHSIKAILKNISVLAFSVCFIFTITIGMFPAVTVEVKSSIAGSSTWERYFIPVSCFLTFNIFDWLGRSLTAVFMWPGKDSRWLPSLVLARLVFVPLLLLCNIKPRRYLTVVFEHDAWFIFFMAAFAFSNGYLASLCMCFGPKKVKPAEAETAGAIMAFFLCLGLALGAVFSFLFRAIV

D(1A) dopamine receptor = D(1A) dopamine receptor (Homo sapiens, UniProt P21728); assay type: functional, cell-based
D(1A) dopamine receptor, sequence (P21728 whole entry): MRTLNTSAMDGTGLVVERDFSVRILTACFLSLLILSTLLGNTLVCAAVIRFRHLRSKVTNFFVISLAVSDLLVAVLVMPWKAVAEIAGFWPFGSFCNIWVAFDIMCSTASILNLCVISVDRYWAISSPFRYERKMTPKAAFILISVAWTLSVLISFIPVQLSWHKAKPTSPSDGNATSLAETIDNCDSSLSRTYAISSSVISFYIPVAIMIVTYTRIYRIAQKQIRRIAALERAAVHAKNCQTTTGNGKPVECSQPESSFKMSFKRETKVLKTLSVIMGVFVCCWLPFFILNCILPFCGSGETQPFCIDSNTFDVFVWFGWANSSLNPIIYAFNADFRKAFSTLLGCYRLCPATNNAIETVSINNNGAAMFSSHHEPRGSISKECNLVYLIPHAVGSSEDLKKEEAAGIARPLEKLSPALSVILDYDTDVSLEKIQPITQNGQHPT

[6] = biological target: Gamma-aminobutyric acid receptor subunit alpha-1 (Rattus norvegicus, UniProt P62813)
Gamma-aminobutyric acid receptor subunit alpha-1, sequence (P62813 whole entry): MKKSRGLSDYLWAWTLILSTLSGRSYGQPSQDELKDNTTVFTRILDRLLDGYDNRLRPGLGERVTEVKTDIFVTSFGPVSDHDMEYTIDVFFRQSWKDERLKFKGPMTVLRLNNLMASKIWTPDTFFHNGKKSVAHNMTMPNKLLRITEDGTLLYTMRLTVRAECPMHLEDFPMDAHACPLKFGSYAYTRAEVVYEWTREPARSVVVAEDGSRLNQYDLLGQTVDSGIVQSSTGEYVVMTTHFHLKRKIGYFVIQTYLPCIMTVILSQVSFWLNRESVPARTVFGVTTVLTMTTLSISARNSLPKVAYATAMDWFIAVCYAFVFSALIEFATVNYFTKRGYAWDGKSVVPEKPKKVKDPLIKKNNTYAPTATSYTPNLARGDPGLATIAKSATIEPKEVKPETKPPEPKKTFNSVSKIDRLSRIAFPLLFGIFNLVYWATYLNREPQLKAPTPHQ
Further: assay procedure not described here.

Question: N=C(N)N/N=C/c1c(Cl)cccc1Cl [GUANABENZ] was tested. Which AC50 (Androgen receptor) did it give?
Answer: > 30 µM

Question: C[N+](C)(CCCCCC[N+](C)(C)C1c2ccccc2-c2ccccc21)C1c2ccccc2-c2ccccc21 [HEXAFLUORENIUM] was tested. Which AC50 [1] did it give?
Answer: 3.09 µM

Question: For Cc1cc(=O)oc2cc(O)ccc12 [HYMECROMONE], which AC50 [1] is on record?
Answer: > 30 µM

Question: With COc1cc(C(C)=O)ccc1OCCCN1CCC(c2noc3cc(F)ccc23)CC1 [ILOPERIDONE] as the compound, how does the AC50 (Endothelin-1 receptor) read?
Answer: > 30 µM

Question: What about the AC50 [2] of the same compound?
Answer: 0.0092 µM

Question: What about the AC50 [3] of the same compound?
Answer: > 30 µM

Question: And the AC50 [4]?
Answer: > 30 µM

Question: What about the AC50 [5] of the same compound?
Answer: > 30 µM

Question: What about the AC50 (D(1A) dopamine receptor) of the same compound?
Answer: > 30 µM

Question: And the AC50 [1]?
Answer: 0.003 µM

Question: For COc1c2occc2c(OC)c2c(=O)cc(C)oc12 [KHELLIN], which AC50 [1] is on record?
Answer: > 30 µM

Question: Which AC50 [1] does the source give for C[N+]1(C)CCCC(OC(=O)C(O)(c2ccccc2)c2ccccc2)C1 (stereo not given) [MEPENZOLATE] here?
Answer: > 30 µM

Question: For C=N[C@@H](C(=O)N[C@@H]1C(=O)N2[C@@H]1SC(C)(C)[C@@H]2C(=O)O)c1ccccc1 [METAMPICILLIN], which AC50 [1] is on record?
Answer: > 30 µM

Question: O=C(NNCS(=O)(=O)O)c1ccncc1 [METHANIAZIDE] was tested. Which AC50 [1] did it give?
Answer: > 30 µM

Question: Which AC50 [1] does the source give for Cc1cc(=O)[nH]c(=S)[nH]1 [METHYLTHIOURACIL] here?
Answer: > 30 µM

Question: COc1ccc2[nH]c([S+]([O-])Cc3ncc(C)c(OC)c3C)nc2c1 (stereo not given) [OMEPRAZOLE] was tested. Which AC50 [1] did it give?
Answer: > 30 µM

Question: For O=C(O)CN(CCN(CC(=O)O)CC(=O)O)CCN(CC(=O)O)CC(=O)O [PENTETIC ACID], which AC50 [1] is on record?
Answer: 1.28 µM

Question: C[Se]CC[C@H](N)C(=O)O [SELENOMETHIONINE] was tested. Which AC50 [1] did it give?
Answer: > 30 µM

Question: Cc1ccccc1C(=O)Nc1ccc(C(=O)N2CCCC(O)c3cc(Cl)ccc32)c(C)c1 (stereo not given) [TOLVAPTAN] was tested. Which AC50 [1] did it give?
Answer: > 30 µM

Question: For C[C@]12C=CC(=O)C=C1CC[C@H]1[C@@H]3C[C@@H](O)[C@](O)(C(=O)CO)[C@@]3(C)C[C@H](O)[C@@]12F [TRIAMCINOLONE], which AC50 [1] is on record?
Answer: > 30 µM

Question: CC(C)[C@H](N)C(=O)OCCOCn1cnc2c(=O)[nH]c(N)nc21 [VALACYCLOVIR] was tested. Which AC50 (Endothelin-1 receptor) did it give?
Answer: > 30 µM

Question: What about the AC50 [2] of the same compound?
Answer: > 30 µM

Question: And the AC50 [3]?
Answer: > 30 µM

Question: And the AC50 [4]?
Answer: > 30 µM

Question: What about the AC50 [5] of the same compound?
Answer: > 30 µM

Question: What about the AC50 (D(1A) dopamine receptor) of the same compound?
Answer: > 10 µM

Question: What about the AC50 [6] of the same compound?
Answer: > 10 µM

Question: With CCC1=C[C@@H]2CN(C1)Cc1c([nH]c3ccccc13)[C@@](C(=O)OC)(c1cc3c(cc1OC)N(C)[C@H]1[C@@](O)(C(=O)OC)[C@H](OC(C)=O)[C@]4(CC)C=CCN5CC[C@]31[C@@H]54)C2 [VINORELBINE] as the compound, how does the AC50 [1] read?
Answer: > 30 µM

Question: Which results are given for O=C1Cc2cc(CCN3CCN(c4nsc5ccccc45)CC3)c(Cl)cc2N1 [ZIPRASIDONE]?
Answer: AC50 (Endothelin-1 receptor): > 30 µM; AC50 [2]: 0.684 µM; AC50 [3]: > 10 µM; AC50 [4]: > 30 µM; AC50 [5]: > 30 µM; AC50 [1]: 0.0179 µM; AC50 [6]: > 10 µM
